Laboratory results from patent US6365643B1, “Photoinitiators for cationic curing” (Th. Goldschmidt AG, priority 1999, dated 2002).
Read-outs that look alike come from different tables or passages of the source.

Legend:
[1] = Solubility in white spirit; assay type: physicochemical
Source text: The solubility of the cationic photoinitiators of the invention was compared with the solubility of commercial, hydroxyl-bearing cationic photoinitiators.

[2] = Miscibility with organopolysiloxanes containing epoxy groups; assay type: physicochemical

CCCCCCCCCCCCC(O)COc1ccc([I+]c2ccccc2)cc1 (stereo not drawn) [CD-1012]
solubility in white spirit [1]: insoluble | solubility in white spirit ([1]; Table 1, Comparison 1): insoluble | miscibility with organopolysiloxanes containing epoxy groups [2]: no miscibility
